This data set deals with rodent carcinogenicity bioassays, tumor incidence. The data set can be described thus: CCRIS carcinogenicity studies. Particulars: Dose: 0, Dose: 0. The method in brief:
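Archive of carcinogenicity, mutagenicity, tumor promotion and tumor inhibition results drawn from journals, NCI reports and other sources, expert-reviewed; covers 1985-2011 and is no longer updated.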

Drawing on PubChem BioAssay AID1259411 (Chemical Carcinogenesis Research Information System (CCRIS), 2018), this text covers carcinogen call for four compounds.

Active and inactive are the calls of the source. The rule behind the calls is not given here.

For the compound `Nc1nc(/C=C/c2ccc([N+](=O)[O-])o2)no1`, the carcinogen call runs as follows: (Species: MOUSE, Strain/Sex: CD-1/FEMALE, Route: GAVAGE, 41, 82, 173 MG/KG/D SUSPENDED IN 25% GLYCEROL 4 D/WK FOR 371 D (TOTAL DOSE 0; 15.4; 30.9; 64.2 G) (STUDY DURATION: LI, 41, 82, 173 MG/KG/D SUSPENDED IN 25% GLYCEROL 4 D/WK FOR 371 D (TOTAL DOSE 0; 15.4; 30.9; 64.2 G) (STUDY DURATION: LI, Tumor Site: Type of Lesion: THYMUS: LYMPHOMA, BLADDER: TRANSITIONAL CELL CARCINOMA, STOMACH: SQUAMOUS CELL CARCINOMA, SQUAMOUS PAPILLOMA, LUNG: ADEN, Tumor Site: Type of Lesion: THYMUS: LYMPHOMA, BLADDER: TRANSITIONAL CELL CARCINOMA, STOMACH: SQUAMOUS CELL CARCINOMA, SQUAMOUS PAPILLOMA, LUNG: ADEN) “active; positive”; (Species: MOUSE, Strain/Sex: CD-1/FEMALE, Route: ORAL, 0.17% IN DIET FOR 58 WK (STUDY DURATION: 91 WK), Tumor Site: Type of Lesion: HEMATOPOIETIC SYSTEM: LYMPHOMA, THYMUS: LYMPHOMA, STOMACH: SQUAMOUS CELL CARCINOMA, SPINDLE CELL TUMOR, Tumor Site: Type of Lesion: HEMATOPOIETIC SYSTEM: LYMPHOMA, THYMUS: LYMPHOMA, STOMACH: SQUAMOUS CELL CARCINOMA, SPINDLE CELL TUMOR) “active; positive”; (Species: MOUSE, Strain/Sex: CD-1/FEMALE, Route: ORAL, 0.25% IN DIET FOR 31 WK (STUDY DURATION: LIFE), Tumor Site: Type of Lesion: THYMUS: LYMPHOMA, STOMACH: SQUAMOUS CELL CARCINOMA, LUNG: ADENOMA, MAMMARY GLAND: ADENOCARCINOMA, Tumor Site: Type of Lesion: THYMUS: LYMPHOMA, STOMACH: SQUAMOUS CELL CARCINOMA, LUNG: ADENOMA, MAMMARY GLAND: ADENOCARCINOMA) “active; positive”; (Species: MOUSE, Strain/Sex: CD-1/MALE, Route: GAVAGE, 45, 87, 185 MG/KG/D SUSPENDED IN 25% GLYCEROL 4 D/WK FOR 371 D (TOTAL DOSE 0; 16.8; 32.3; 68.8 G) (STUDY DURATION: LI, 45, 87, 185 MG/KG/D SUSPENDED IN 25% GLYCEROL 4 D/WK FOR 371 D (TOTAL DOSE 0; 16.8; 32.3; 68.8 G) (STUDY DURATION: LI, Tumor Site: Type of Lesion: THYMUS: LYMPHOMA, BLADDER: TRANSITIONAL CELL CARCINOMA, STOMACH: SQUAMOUS CELL CARCINOMA, SQUAMOUS PAPILLOMA, LUNG: ADEN, Tumor Site: Type of Lesion: THYMUS: LYMPHOMA, BLADDER: TRANSITIONAL CELL CARCINOMA, STOMACH: SQUAMOUS CELL CARCINOMA, SQUAMOUS PAPILLOMA, LUNG: ADEN) “active; positive”; (Species: MOUSE, Strain/Sex: CD-1/MALE, Route: ORAL, 0.18% IN DIET FOR 58 WK (STUDY DURATION: 92 WK), Tumor Site: Type of Lesion: THYMUS: LYMPHOMA, BLADDER: TRANSITIONAL CELL CARCINOMA, STOMACH: SQUAMOUS CELL CARCINOMA, SPINDLE CELL TUMOR, Tumor Site: Type of Lesion: THYMUS: LYMPHOMA, BLADDER: TRANSITIONAL CELL CARCINOMA, STOMACH: SQUAMOUS CELL CARCINOMA, SPINDLE CELL TUMOR) “active; positive”; (Species: MOUSE, Strain/Sex: CD-1/MALE, Route: ORAL, 0.25% IN DIET FOR 38 WK (STUDY DURATION: LIFE), Tumor Site: Type of Lesion: THYMUS: LYMPHOMA, BLADDER: TRANSITIONAL CELL CARCINOMA, SPINDLE CELL TUMOR, STOMACH: SQUAMOUS CELL CARCINOMA, SQUAMOUS P, Tumor Site: Type of Lesion: THYMUS: LYMPHOMA, BLADDER: TRANSITIONAL CELL CARCINOMA, SPINDLE CELL TUMOR, STOMACH: SQUAMOUS CELL CARCINOMA, SQUAMOUS P) “active; positive”.

For `Cc1cc(N=Nc2c(O)ccc3ccccc23)c(S(=O)(=O)O)cc1Cl`, the carcinogen call is, setting by setting: (Species: MOUSE, Strain/Sex: B6C3F1/FEMALE, Route: ORAL, 1000, 2000 PPM IN DIET FOR 103 WK (STUDY DURATION: 103 WK), 1000, 2000 PPM IN DIET FOR 103 WK (STUDY DURATION: 103 WK)) “inactive; negative”; (Species: MOUSE, Strain/Sex: B6C3F1/MALE, Route: ORAL, 1000, 2000 PPM IN DIET FOR 103 WK (STUDY DURATION: 103 WK), 1000, 2000 PPM IN DIET FOR 103 WK (STUDY DURATION: 103 WK)) “inactive; negative”; (Species: MOUSE, Strain/Sex: ICR/FEMALE, Route: DERMAL, 1 MG IN 0.1 ML DISTILLED WATER 2/WK FOR A MEAN TOTAL DOSE OF 134.7 MG (STUDY DURATION: 18 MO)) “inactive; negative”; (Species: MOUSE, Strain/Sex: ICR/MALE, Route: DERMAL, 1 MG IN 0.1 ML DISTILLED WATER 2/WK FOR A MEAN TOTAL DOSE OF 134.7 MG (STUDY DURATION: 18 MO)) “inactive; negative”; (Species: RAT, Strain/Sex: F344/FEMALE, Route: ORAL, 1000, 3000 PPM IN DIET FOR 103 WK (STUDY DURATION: 103 WK), 1000, 3000 PPM IN DIET FOR 103 WK (STUDY DURATION: 103 WK), Tumor Site: Type of Lesion: LIVER: NEOPLASTIC NODULE) “equivocal”; (Species: RAT, Strain/Sex: F344/FEMALE, Route: ORAL, 1000, 3000 PPM IN DIET FOR 103 WK (STUDY DURATION: 104 WK), 1000, 3000 PPM IN DIET FOR 103 WK (STUDY DURATION: 104 WK)) “inactive; negative”. Moreover, the carcinogen call by setting is: (Species: RAT, Strain/Sex: F344/MALE, Route: ORAL, 1000, 3000 PPM IN DIET FOR 103 WK (STUDY DURATION: 103 WK), 1000, 3000 PPM IN DIET FOR 103 WK (STUDY DURATION: 103 WK), Tumor Site: Type of Lesion: SPLEEN: SARCOMA, LIVER: NEOPLASTIC NODULE) “active; positive”; (Species: RAT, Strain/Sex: F344/MALE, Route: ORAL, 1000, 3000 PPM IN DIET FOR 103 WK (STUDY DURATION: 104 WK), 1000, 3000 PPM IN DIET FOR 103 WK (STUDY DURATION: 104 WK), Tumor Site: Type of Lesion: SPLEEN OR PERITONEUM: SARCOMA) “active; positive”.

Regarding `c1ccc2c(c1)ccc1cccnc12`, the carcinogen call by setting is: (Species: RAT, Strain/Sex: SPRAGUE-DAWLEY/FEMALE, Route: SUBCUTANEOUS, 200 UMOL/KG IN DMSO INTO SUPRASCAPULAR AREA ON DAY 1 OF LIFE FOLLOWED BY 0, 100 UMOL 1/WK AT WK 2-7 THEN O, 200 UMOL/, 200 UMOL/KG IN DMSO INTO SUPRASCAPULAR AREA ON DAY 1 OF LIFE FOLLOWED BY 0, 100 UMOL 1/WK AT WK 2-7 THEN O, 200 UMOL/) “inactive; negative”; (Species: RAT, Strain/Sex: SPRAGUE-DAWLEY/MALE, Route: SUBCUTANEOUS, 200 UMOL/KG IN DMSO INTO SUPRASCAPULAR AREA ON DAY 1 OF LIFE FOLLOWED BY 0, 100 UMOL 1/WK AT WK 2-7 THEN O, 200 UMOL/, 200 UMOL/KG IN DMSO INTO SUPRASCAPULAR AREA ON DAY 1 OF LIFE FOLLOWED BY 0, 100 UMOL 1/WK AT WK 2-7 THEN O, 200 UMOL/) “inactive; negative”.

As for `O=C1OC(c2ccc(O)cc2)(c2ccc(O)cc2)c2ccccc21`, the carcinogen call was “active; positive” (Species: MOUSE, Strain/Sex: B6C3F1/FEMALE, Route: ORAL, 3000, 6000, 12000 PPM IN DIET FOR 2 YR (STUDY DURATION: 2 YR), 3000, 6000, 12000 PPM IN DIET FOR 2 YR (STUDY DURATION: 2 YR), Tumor Site: Type of Lesion: OVARY: BENIGN SEX-CORD STROMAL TUMOR, LIVER: HISTIOCYTIC SARCOMA, LYMPHATIC SYSTEM: MALIGNANT LYMPHOMA, MALIGNANT LYMPHO, Tumor Site: Type of Lesion: OVARY: BENIGN SEX-CORD STROMAL TUMOR, LIVER: HISTIOCYTIC SARCOMA, LYMPHATIC SYSTEM: MALIGNANT LYMPHOMA, MALIGNANT LYMPHO); “active; positive” (Species: MOUSE, Strain/Sex: B6C3F1/MALE, Route: ORAL, 3000, 6000, 12000 PPM IN DIET FOR 2 YR (STUDY DURATION: 2 YR), 3000, 6000, 12000 PPM IN DIET FOR 2 YR (STUDY DURATION: 2 YR), Tumor Site: Type of Lesion: LIVER: HISTIOCYTIC SARCOMA, LYMPHATIC SYSTEM: MALIGNANT LYMPHOMA (THYMIC ORIGIN)); “active; positive” (Species: RAT, Strain/Sex: F344/FEMALE, Route: ORAL, 12000, 25000, 50000 PPM IN DIET FOR 2 YR (STUDY DURATION: 2 YR), 12000, 25000, 50000 PPM IN DIET FOR 2 YR (STUDY DURATION: 2 YR), Tumor Site: Type of Lesion: ADRENAL MEDULLA: BENIGN PHEOCHROMOCYTOMA, BENIGN OR MALIGNANT PHEOCHROMOCYTOMA); “active; positive” (Species: RAT, Strain/Sex: F344/MALE, Route: ORAL, 12000, 25000, 50000 PPM IN DIET FOR 2 YR (STUDY DURATION: 2 YR), 12000, 25000, 50000 PPM IN DIET FOR 2 YR (STUDY DURATION: 2 YR), Tumor Site: Type of Lesion: ADRENAL MEDULLA: BENIGN PHEOCHROMOCYTOMA, KIDNEY(RENAL TUBULE): ADENOMA, ADENOMA OR CARCINOMA).
